For 9 compounds, inhibition in vivo, IC50 and Activity results are on record in ChEMBL document CHEMBL3351597, “Synthesis and activity of new triphenylphosphonium derivatives of betulin and betulinic acid against Schistosoma mansoni in vitro and in vivo” (Bioorg Med Chem, 2014).

Molecules are shown by their SMILES. The source made the active and inactive calls. The calls are words filed in the database; no cut-off is given here.

The subject of experiment [1] is Schistosoma mansoni. The experiment in a line: Antischistosomal activity against Schistosoma mansoni infected in NMRI mouse assessed as reduction of total worm burden at 400 mg/kg, po treated after 49 days of infection measured after 21 days post treatment. In kind it is functional.
Experiment [2] concerns Schistosoma mansoni. The experiment in a line: Antischistosomal activity against newly transformed Schistosoma mansoni assessed as decrease in viability after 72 hrs. In kind it is functional, organism-based.
The test system of experiment [3] is Schistosoma mansoni. The experiment in a line: Antischistosomal activity against Schistosoma mansoni infected in NMRI mouse assessed as reduction of female worm burden at 400 mg/kg, po treated after 49 days of infection measured after 21 days post treatment. Type of experiment: functional.
The test system of experiment [4] is Schistosoma mansoni. The experiment in a line: Antischistosomal activity against newly transformed Schistosoma mansoni assessed as death at 2.78 microg/ml after 72 hrs. Type of experiment: functional, organism-based.
Experiment [5] deals with Schistosoma mansoni. Put plainly: Antischistosomal activity against Schistosoma mansoni infected in NMRI mouse assessed as mouse cured at 400 mg/kg, po treated after 49 days of infection measured after 21 days post treatment. Type of experiment: functional, organism-based. Also noted: dose 400 mg/kg.
Experiment [6] deals with Schistosoma mansoni. The experiment in a line: Antischistosomal activity against newly transformed Schistosoma mansoni assessed as death at 8.33 microg/ml after 72 hrs. In kind it is functional, organism-based.
Experiment [7] relates to L6. Put plainly: Cytotoxicity against rat L6 cells after 24 hrs by Resazurin dye. In kind it is cell-based. As to conditions: L6, 24 h.

In general, inhibition in vivo refers to the percentage by which the read-out fell short of the control. As usually defined, the IC50 is the midpoint of a concentration-inhibition curve. `C=C(C[P+](c1ccccc1)(c1ccccc1)c1ccccc1)[C@@H]1CC[C@]2(C(=O)OC)CC[C@]3(C)[C@H](CC[C@@H]4[C@@]5(C)CC[C@H](OC(C)=O)C(C)(C)[C@@H]5CC[C@]43C)[C@@H]12.[Br-]`: the inhibition in vivo at 400 mg/kg in experiment [1] turned out to be 21.9%; in experiment [3], 24.8%. For the same compound, the concentration for half-maximal inhibition (IC50) in experiment [2] stood at 0.76 µg/mL. Further, the outcome in experiment [4] and in experiment [6] was Active. The result in experiment [5] was inactive.

Take `CC(=O)O[C@H]1[C@@H](CCC[P+](c2ccccc2)(c2ccccc2)c2ccccc2)C[C@]2(C)[C@H]3CC[C@@H]4[C@H]5[C@H](C(C)C)CC[C@]5(C(=O)O)CC[C@@]4(C)[C@]3(C)CC[C@H]2C1(C)C`: in experiment [2], the result was Active.

Turning to `COC(=O)[C@]12CC[C@@H](C(C)C)[C@@H]1[C@H]1CC[C@@H]3[C@@]4(C)C[C@H](CCC[P+](c5ccccc5)(c5ccccc5)c5ccccc5)[C@@H](O)C(C)(C)[C@@H]4CC[C@@]3(C)[C@]1(C)CC2`, the outcome in experiment [2] was Active.

As for `COC(=O)[C@]12CC[C@@H](C(C)C)[C@@H]1[C@H]1CC[C@@H]3[C@@]4(C)C[C@H](CCC[P+](c5ccccc5)(c5ccccc5)c5ccccc5)[C@@H](OC(C)=O)C(C)(C)[C@@H]4CC[C@@]3(C)[C@]1(C)CC2.[Br-]`, in experiment [2], the IC50 was 1.37 µg/mL. Further, the outcome in experiment [6] was Active.

In the case of `CC(=O)O[C@H]1[C@@H](CCC[P+](c2ccccc2)(c2ccccc2)c2ccccc2)C[C@]2(C)[C@H]3CC[C@@H]4[C@H]5[C@H](C(C)C)CC[C@]5(C(=O)OCc5ccccc5)CC[C@@]4(C)[C@]3(C)CC[C@H]2C1(C)C`, in experiment [2], the result was Active.

Consider `COC(=O)[C@]12CC[C@@H](C(C)C)[C@@H]1[C@H]1CC[C@@H]3[C@@]4(C)C[C@H](CCC[P+](c5ccccc5)(c5ccccc5)c5ccccc5)[C@H](O)C(C)(C)[C@@H]4CC[C@@]3(C)[C@]1(C)CC2`, for which the outcome in experiment [2] was Active.

In the case of `COC(=O)[C@]12CC[C@@H](C(C)CI)[C@@H]1[C@H]1CC[C@@H]3[C@@]4(C)C[C@H](CCC[P+](c5ccccc5)(c5ccccc5)c5ccccc5)[C@H](OC(C)=O)C(C)(C)[C@@H]4CC[C@@]3(C)[C@]1(C)CC2.[I-]` (stereo partly drawn), the IC50 is 6.35 µg/mL in experiment [2] and 1.65 µg/mL in experiment [7].

For the compound `C=C(C[P+](c1ccccc1)(c1ccccc1)c1ccccc1)[C@@H]1CC[C@]2(COC(C)=O)CC[C@]3(C)[C@H](CC[C@@H]4[C@@]5(C)CC[C@H](OC(C)=O)C(C)(C)[C@@H]5CC[C@]43C)[C@@H]12.[Br-]`, the inhibition in vivo at 400 mg/kg in experiment [1] was 22.2%; in experiment [3], 20.3%. The IC50 in experiment [2] and in experiment [7] was 0.64 µg/mL in each case. Besides, the result in experiment [4] and in experiment [6] was Active. The outcome in experiment [5] was inactive.

In the case of `COC(=O)[C@]12CC[C@@H](C(C)C)[C@@H]1[C@H]1CC[C@@H]3[C@@]4(C)C[C@H](CCC[P+](c5ccccc5)(c5ccccc5)c5ccccc5)[C@H](OC(C)=O)C(C)(C)[C@@H]4CC[C@@]3(C)[C@]1(C)CC2.[Br-]`, the IC50 in experiment [2] came out at 1.46 µg/mL. In addition, in experiment [6], the result was Active.
